Source: patent publication US20100048696A1, “AGRICULTURAL DISEASE CONTROL AGENT” (Idemitsu Kosan Co., Ltd., priority 2007, published 2010)
Read-outs that look alike come from different tables or passages of the source.

Columns and labels:
Format in all cases: cell-based
Conditions in all cases: 5 minutes
Fusarium oxysporum = assay: Material disinfection test
Botrytis cinerea = assay: Material disinfection test
Rhizoctonia solani = assay: Material disinfection test
Pyricularia oryzae = test system: Pyricularia oryzae
Pythium ultimum = assay: Material disinfection test
Erwinia chrysanthemi = assay: Material disinfection test
Burkholderia glumae = assay: Material disinfection test
Ralstonia solanacearum = test system: Ralstonia solanacearum
Burkholderia plantarii = assay: Material disinfection test

Row | SMILES | average value of viable filamentous fungi counts on all materials examined (Fusarium oxysporum; 10 times solution sprayed) | average value of viable filamentous fungi counts on all materials examined (Fusarium oxysporum; 50 times solution sprayed) | average value of viable filamentous fungi counts on all materials examined (Botrytis cinerea; 10 times solution sprayed) | average value of viable filamentous fungi counts on all materials examined (Botrytis cinerea; 50 times solution sprayed) | average value of viable filamentous fungi counts on all materials examined (Rhizoctonia solani; 10 times solution sprayed) | average value of viable filamentous fungi counts on all materials examined (Rhizoctonia solani; 50 times solution sprayed) | average value of viable filamentous fungi counts on all materials examined (Pyricularia oryzae; 50 times solution sprayed) | average value of viable filamentous fungi counts on all materials examined (Pythium ultimum; 10 times solution sprayed) | average value of viable filamentous fungi counts on all materials examined (Pythium ultimum; 50 times solution sprayed) | Average value of viable bacteria counts on all materials examined (Erwinia chrysanthemi; 10 times solution sprayed) | Average value of viable bacteria counts on all materials examined (Erwinia chrysanthemi; 50 times solution sprayed) | Average value of viable bacteria counts on all materials examined (Burkholderia glumae; 10 times solution sprayed) | Average value of viable bacteria counts on all materials examined (Burkholderia glumae; 50 times solution sprayed) | Average value of viable bacteria counts on all materials examined (Ralstonia solanacearum; 10 times solution sprayed) | Average value of viable bacteria counts on all materials examined (Ralstonia solanacearum; 50 times solution sprayed) | Average value of viable bacteria counts on all materials examined (Burkholderia plantarii; 10 times solution sprayed) | Average value of viable bacteria counts on all materials examined (Burkholderia plantarii; 50 times solution sprayed) | average value of viable filamentous fungi counts on all materials examined (Pyricularia oryzae; 10 times solution sprayed)
1 | O=C(O)CC(O)(CC(=O)O)C(=O)O [Citric acid] | 3.7 × 10^5 cfu/ml | 3.4 × 10^5 cfu/ml | 2.6 × 10^5 cfu/ml | 4.6 × 10^5 cfu/ml | 2.0 × 10^5 cfu/ml | 1.7 × 10^5 cfu/ml | 3.2 × 10^4 cfu/ml | 2.8 × 10^4 cfu/ml | 1.7 × 10^4 cfu/ml | 1.7 × 10^8 cfu/ml | 1.9 × 10^8 cfu/ml | 2.6 × 10^8 cfu/ml | 1.7 × 10^8 cfu/ml | 1.1 × 10^9 cfu/ml | 1.5 × 10^9 cfu/ml | 3.8 × 10^7 cfu/ml | 1.0 × 10^7 cfu/ml | –
2 | O=C(O)CCC(=O)O [Succinic acid] | 2.3 × 10^5 cfu/ml | 4.5 × 10^5 cfu/ml | 3.5 × 10^5 cfu/ml | 4.3 × 10^5 cfu/ml | 1.5 × 10^5 cfu/ml | 2.1 × 10^5 cfu/ml | 3.1 × 10^4 cfu/ml | 7.8 × 10^3 cfu/ml | 3.0 × 10^4 cfu/ml | 1.0 × 10^8 cfu/ml | 1.0 × 10^8 cfu/ml | 1.0 × 10^8 cfu/ml | 1.5 × 10^8 cfu/ml | 1.1 × 10^9 cfu/ml | 8.5 × 10^8 cfu/ml | 2.5 × 10^7 cfu/ml | 2.6 × 10^7 cfu/ml | 3.2 × 10^4 cfu/ml
3 | CC(=O)O [Acetic acid] | 76 cfu/ml | 4.2 × 10^2 cfu/ml | 65 cfu/ml | 2.6 × 10^2 cfu/ml | 33 cfu/ml | 3.1 × 10^2 cfu/ml | 1.5 × 10^2 cfu/ml | 58 cfu/ml | 6.8 × 10^3 cfu/ml | 3.2 × 10^3 cfu/ml | 1.1 × 10^7 cfu/ml | 5.0 × 10^2 cfu/ml | 3.3 × 10^7 cfu/ml | 2.8 × 10^2 cfu/ml | 6.0 × 10^8 cfu/ml | 1.2 × 10^3 cfu/ml | 8.3 × 10^6 cfu/ml | 98 cfu/ml
